PMC12655351, “Synthesis and Anticancer Activity Evaluation of New 5-((5-Nitrofuran-2-yl)allylidene)-2-thioxo-4-thiazolidinones” (Pharmaceuticals, 2025)

Legend:
RXF 393 = test: NCI-60 SRB screen; conditions: RXF 393, 48 h
Leukemia = test: cells; conditions: Homo sapiens
Melanoma = Melanoma subpanel
OVCAR-4 = conditions: OVCAR-4, 48 h
OVCAR-3 [1] = test: cells; conditions: Homo sapiens, OVCAR-3, 48 h
SF-295 = test: NCI-60 SRB screen; conditions: SF-295, 48 h
SR [2] = conditions: 48 h
HCC-2998 = conditions: HCC-2998, 48 h
LOX IMVI = test: cells; conditions: Homo sapiens, 48 h
Breast cancer = test: cells; conditions: Homo sapiens
MDA-MB-231/ATCC = conditions: 48 h
SNB-75 = test: NCI-60 SRB screen; conditions: SNB-75, 48 h
786-0 = test: cells; conditions: Homo sapiens, 786-0, 48 h
MDA-MB-231 = test: [3H]-thymidine incorporation assay; type: cell-based; conditions: Homo sapiens; MDA-MB-231, 24 h of treatment
How it was run: (§1)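 Cells treated 24 h with compound at 1, 5, 10 μM (MCF-7) or 5, 15, 30 μM (MDA-MB-231), in triplicate, then pulsed with 0.5 μCi [3H]-thymidine for 4 h at 37 °C. TCA-precipitated, lysed cells counted by scintillation; uptake expressed as percent of control.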

MCF-7 = test: [3H]-thymidine incorporation assay; type: cell-based; conditions: Homo sapiens, MCF7; MCF-7, 24 h of treatment
How it was run: as §1

HS 578T = conditions: 48 h
NCI-H23 = conditions: NCI-H23, 48 h
SNB-19 = test: NCI-60 SRB screen; conditions: SNB-19, 48 h
Colon cancer = test: NCI-60 SRB screen, subpanel
SR [3] = test: cells; conditions: Homo sapiens, 48 h
[4] = tested on: panel of 60 cancer cell lines
SF-539 = conditions: SF-539, 48 h
NCI/ADR-RES = conditions: 48 h
T-47D = conditions: 48 h
SN12C = test: cells; conditions: Homo sapiens, 48 h
Ovarian cancer = Ovarian cancer subpanel
Prostate Cancer = Prostate Cancer subpanel
HOP-62 = test: NCI-60 SRB screen; conditions: HOP-62, 48 h
OVCAR-3 [5] = conditions: OVCAR-3, 48 h
U251 = test: NCI-60 SRB screen

For `O=C(O)C(c1ccccc1)N1C(=O)/C(=C/C=C/c2ccc([N+](=O)[O-])o2)SC1=S` (centres unmarked) [9b, 2-((Z)-5-((E)-3-(5-Nitrofuran-2-yl)allylidene)-4-oxo-2-thioxothiazolidin-3-yl)-2-phenylacetic acid], the GI50 (RXF 393; Homo sapiens) was 4.01 µM, the TGI (RXF 393) was 14.6 µM and the GI50 (Leukemia; read-out: MG_MID GI50) was 6.64 µM. The CC50 (Leukemia; read-out: MG_MID LC50) was over 100 µM, the “MG_MID TGI” value (Melanoma) was 20.0 µM and the TGI (OVCAR-4) was 28.0 µM. The GI50 (OVCAR-3 [1]) was 9.26 µM, the GI50 (SF-295; Homo sapiens) was 17.4 µM and the CC50 (SF-295; Homo sapiens, read-out: LC50, SF-295, 48 h) was 58.4 µM. It also gave a TGI (SF-295) of 31.9 µM, a TGI (SR [2]) of 18.0 µM and a TGI (HCC-2998) of 29.9 µM. For the same molecule, the GI50 (LOX IMVI) was 10.8 µM, the CC50 (LOX IMVI; read-out: LC50, LOX IMVI, 48 h) was 62.3 µM and the GI50 (Breast cancer; read-out: MG_MID GI50) was 5.89 µM. The CC50 (Breast cancer; read-out: MG_MID LC50) was 49.4 µM, the TGI (MDA-MB-231/ATCC) was 24.2 µM and the GI50 (SNB-75; Homo sapiens) was 2.11 µM. For the same molecule, the CC50 (SNB-75; Homo sapiens, read-out: LC50, SNB-75, 48 h) was 27.9 µM, the TGI (SNB-75) was 7.39 µM and the GI50 (786-0) was 3.67 µM. It also gave an IC50 (MDA-MB-231) of 7.53 µM, an IC50 (MCF-7) of 7.98 µM and a TGI (HS 578T) of 35.0 µM. It also gave a TGI (NCI-H23) of 31.0 µM, a GI50 (SNB-19; Homo sapiens) of 13.5 µM and a CC50 (SNB-19; Homo sapiens, read-out: LC50, SNB-19, 48 h) of 51.4 µM. The TGI (SNB-19) was 26.3 µM, the “MG_MID TGI” value (Colon cancer; Colon cancer subpanel) was 19.4 µM and the GI50 (Colon cancer; Homo sapiens, read-out: MG_MID GI50) was 6.75 µM. It also gave a CC50 (Colon cancer; Homo sapiens, read-out: MG_MID LC50) of 66.2 µM, a GI50 (SR [3]) of 3.15 µM and a CC50 (SR [3]; read-out: LC50) of over 100 µM. For the same molecule, the “Positive cytostatic effect (ratio of cell lines with GP from 0 to 50 to total number)” value ([4]; 10 μM, 48 h) was 28/55, the Mean growth ([4]; 10 μM, 48 h, one dose) was 26.29% and the Range of growth ([4]; 10 μM, 48 h, one dose) was -88.21 to 175.37%. The “MG_MID TGI” value ([4]; full panel (last line of Table S2)) was 24.1 µM, the TGI (SF-539) was 24.7 µM and the TGI (NCI/ADR-RES) was 33.9 µM. It also gave a TGI (T-47D) of 39.4 µM, a GI50 (SN12C) of 5.39 µM and a CC50 (SN12C; read-out: LC50, SN12C, 48 h) of 45 µM. The “MG_MID TGI” value (Ovarian cancer) was 27.9 µM, the “MG_MID TGI” value (Prostate Cancer) was 26.8 µM and the TGI (HOP-62) was 44.5 µM. It also gave a GI50 (HOP-62; Homo sapiens) of 13.1 µM, a TGI (OVCAR-3 [5]) of 21.4 µM and a GI50 (U251; Homo sapiens, U-251, 48 h, U251, 48 h) of 4.11 µM. For the same molecule, the CC50 (U251; Homo sapiens, U-251, 48 h, read-out: LC50, U251, 48 h) was 49.8 µM and the TGI (U251; U251, 48 h) was 16.5 µM.
